Columns and labels:
male CD rats = assay: Adjuvant-Induced Developing Arthritis Assay; format: in vivo; conditions: Rattus norvegicus, po, 336 h, 14 days from adjuvant injection, non-injected hind paw volume; for inhibition in vivo at 25 mg/kg: 25 mg/kg orally once daily; for inhibition in vivo at 50 mg/kg: 50 mg/kg orally once daily
Source text: This assay is used to determine the ability of compounds to affect the immunological processes involved in the induction and development of arthritis and represents a standard model for which there is good correlation with human efficacy. It is described and discussed in Newbould, B. B., Chemotherapy of Arthritis Induced in Rats by Mycobacterial Adjuvant., Brit. J. Pharmacol. 21:127-136 (1963) and Federation Proceedings, Models Used for the Study and Therapy of Rheumatoid Arthritis - Symposium of the American Society for Pharmacology and Experimental Therapeutics, Vol. 32, No. 2 (1973). The procedural details and results observed in the experiments reported here are as follows.
(§1) Polyarthritis is induced in male CD rats (150-170 g) as follows. Heat-killed Mycobacterium butyricum (0.1 ml of a […] 5 mg/ml adjuvant suspension in light mineral oil) is injected subcutaneously into the plantar surface of the right hind foot of each animal. At least 10 rats are used in each test group. Animals are dosed orally with one of the compounds under assay immediately after adjuvant injection, and once daily for a total of 14 days. Untreated normal and arthritic control groups are used as comparison for test compound effect. Foot volumes are measured 24 hours after the final dose by mercury displacement to the lateral malleolus. Mean displacement volumes and their standard errors are calculated for the non-injected hind paws.
The results are expressed as the percent of the mean displacement volume of the control observed in animals treated with the specified compound at the indicated daily dosage level and are as set forth in Table 1: […]

[1] = system: Rats in which polyarthritis has become established; assay: Adjuvant-Induced Established Arthritis Assay; format: in vivo, rat; conditions: days 14-27, non-injected paw volume
Procedure: as §1
This assay is used to determine the ability of compounds to affect an established chronic inflammatory condition.
Polyarthritis is induced as described in Example 8. Rats in which polyarthritis has become established are selected 14 days after receiving the adjuvant suspension. They are treated daily with oral doses of test compound for 14 days (days 14-27). Foot volumes of the non-injected paws are measured as in 8, 24 hours after the final dose. Untreated arthritic control groups are used as comparison for test compound effect as described in Example 8.

O=S(=O)(CC(F)(F)F)c1nc2ccccc2[nH]1 [Example 4, 2-(2,2,2-Trifluoroethylsulfonyl)-1H-benzimidazole]
inhibition in vivo at 25 mg/kg (male CD rats): 52% | % Inhibition ([1]; 50 mg/kg orally daily): 45%

Cc1cc2nc(S(=O)(=O)CC(F)(F)F)[nH]c2cc1C [Example 6, 5,6-Dimethyl-2-(2,2,2-trifluoroethylsulfonyl)-1H-benzimidazole]
inhibition in vivo at 25 mg/kg (male CD rats): 18%

O=S(=O)(CC(F)(F)F)c1nc2cc(Cl)c(Cl)cc2[nH]1 [Example 3, 5,6-Dichloro-2-(2,2,2-trifluoroethylsulfonyl)-1H-benzimidazole]
inhibition in vivo at 25 mg/kg (male CD rats): 24%

Cc1ccc2[nH]c(S(=O)(=O)CC(F)(F)F)nc2c1 [Example 1, 5-Methyl-2-(2,2,2-trifluoroethylsulfonyl)-1H-benzimidazole]
inhibition in vivo at 25 mg/kg (male CD rats): 52% | inhibition in vivo at 50 mg/kg (male CD rats): 72% | % Inhibition ([1]; 50 mg/kg orally daily): 30% | % Inhibition ([1]; 75 mg/kg orally daily): 42% | % Inhibition ([1]; 100 mg/kg orally daily): 60%

CCc1ccc2[nH]c(S(=O)(=O)CC(F)(F)F)nc2c1 [Example 7, 5-Ethyl-2-(2,2,2-trifluoroethylsulfonyl)-1H-benzimidazole]
inhibition in vivo at 25 mg/kg (male CD rats): 34%

O=S(=O)(CC(F)(F)F)c1nc2cc(F)ccc2[nH]1 [Example 5, 5-Fluoro-2-(2,2,2-trifluoroethylsulfonyl)-1H-benzimidazole]
inhibition in vivo at 25 mg/kg (male CD rats): 43%

Cc1cc2nc(S(=O)(=O)CC(F)(F)F)[nH]c2cc1F [Example 8, 6-Fluoro-5-methYl-2-(2,2,2-trifluoroethylsulfonyl)-1H-benzimidazole]
inhibition in vivo at 50 mg/kg (male CD rats): 64%

O=S(=O)(CC(F)(F)F)c1nc2cc(Cl)ccc2[nH]1 [Example 2, 5-Chloro-2-(2,2,2-trifluoroethylsulfonyl)-1H-benzimidozole]
inhibition in vivo at 25 mg/kg (male CD rats): 28%

Source: US4608381A, “Antiinflammatory 2-(trifluoroethylsulfonyl)benzimidazoles” (Boehringer Ingelheim Pharmaceuticals, Inc., priority 1985, dated 1986)
